Square brackets hold non-standard residues; d marks the D form. Ends that are not written are not given here. Peptide text beside a SMILES is read from it. * marks the point of attachment. Biotin = O=C1N[C@H]2[C@H](CS[C@H]2CCCCC(=O)*)N1; pS = N[C@@H](COP(=O)(O)O)C(=O)O

Experiment [1] concerns heterodimeric T. brucei 14-3-3I+II. The experiment is described as follows: NC-filter binding assay, heterodimeric T. brucei 14-3-3. On the set-up: species or system Trypanosoma brucei. As to conditions: biotinylated peptide + streptavidine on nitrocellulose filter, GST-14-3-3 detected with α-GST antibodies. On the procedure:
(§1) Five µl of 1 mM biotinylated peptides, purchased from Scrum (Japan) were mixed with 15 µl of streptavidine (1 mg/ml) in the presence of 0.1% Tween20, spotted on NC-filters and dried. Filters were washed with TTBS, blocked with Protein-Free Blocking Buffer (Pierce), and then incubated with GST-14-3-3 proteins in TTBS containing 20% Protein-Free Blocking Buffer and 1 mM DTT. The filters were extensively washed four times with TTBS, and detected with anti-GST antibodies.

The test system of experiment [2] is endogenous 14-3-3II (T. brucei PCF lysates). The experiment is described as follows: Peptide pull-down assay, endogenous 14-3-3II. The format is binding, Trypanosoma brucei. The protocol: (§2) Ten µl of streptavidin agarose beads (Sigma Chemical Co., St. Louis, MO) were incubated with 10 µl of 100 µM of pRaf 259 (biotin- MAGGGRQRSTSTPN) and/or pSRaf 259 at room temperature for 30 min and the beads were washed three times with lysis buffer (150 mM NaCl, 10 mM HEPES, pH 7.5, 0.2% NP-40, 50 mM NaF, 1 mM Na3VO4 and Roche protease inhibitor tablets). Next, 1×10^9 cells of T. brucei PCF were lysed with 2 ml of the lysis buffer on ice. Insoluble proteins were pelleted and 1 ml of the supernatant was used for each peptide pull-down assay. The lysates were incubated with each bead, rotated at 4°C for 2 hrs and washed with the lysis buffer three times. Twenty µl of 2xSDS Gel loading buffer with 2-mercaptoethanol were added to the washed beads, and 5 µl of eluates were run on 10–20% SDS-PAGE. The blots were detected with α-I and/or α–II Abs as described previously.

Experiment [3] has as its system endogenous 14-3-3I (T. brucei PCF lysates). In words: Peptide pull-down assay, endogenous 14-3-3I. It is filed as binding, Trypanosoma brucei. On the procedure: as §2
The test system of experiment [4] is proteins of HeLa and T. brucei PCF cell lysates. The experiment is described as follows: Far-Western blot analysis of HeLa and PCF cell lysates with 14-3-3 probes. The format is binding, HeLa (human) and Trypanosoma brucei. As to conditions: for effect on interacting proteins, CalA (−) vs (+), with or without calcium: 1 mM CaCl2, T. brucei 14-3-3 probe 2 µg/ml, representative of three independent experiments. On the procedure: Far-Western blot analysis of Ser/Thr phosphatase inhibitor Calyculin A (CalA) treated + and/or untreated – of HeLa and/or 29-13 PCF cell lysates was performed. HeLa cells and/or 29-13 PCF cells were lysed with SDS-gel loading buffer supplemented with 2-mercaptoethanol (Bio-Rad, Hercules, CA) and sonicated. The cell lysates equivalent to 5×10^5 HeLa cells and 1×10^7 29-13 PCF cells were applied on 4–20% SDS-PAGE (Daiichi, Japan) and transferred to nitrocellulose filters (Millipore, Bedford, MA). The filters were denatured with denaturation buffer (6M guanidine-HCl, 50 mM Tris-HCl, pH 8.0, and 1 mM dithiothreitol [DTT]). The denaturation buffer was then diluted with an equal volume of 50 mM Tris-HCl, pH 8.0 with 1 mM DTT. After 15 min of denaturation, the filters were then treated with 2x diluted denaturation buffer. The same step was repeatedly carried out eight times and then renatured filters were washed twice with TTBS (50 mM Tris-HCl, pH 7.4, 0.1% Tween 20, and 150 mM NaCl). The resultant filters were blocked with TTBS containing 4% skim milk plus 1 mM DTT. Then the filters were incubated overnight with 1 or 2 µg/ml of GST-14-3-3 probes in 4% skim milk containing the blocking solution at 4°C. The filters were washed three times with TTBS and incubated with anti-GST polyclonal antibodies (Sigma) followed by horseradish peroxidase (HRP)-labeled anti-rabbit goat IgG (Jackson Immunoresearch Laboratories, West Grove, PA).

The target in another experiment is T1, human 14-3-3τ (Homo sapiens, UniProt P27348).
T1 construct: made in house
T1 sequence (P27348 1-245): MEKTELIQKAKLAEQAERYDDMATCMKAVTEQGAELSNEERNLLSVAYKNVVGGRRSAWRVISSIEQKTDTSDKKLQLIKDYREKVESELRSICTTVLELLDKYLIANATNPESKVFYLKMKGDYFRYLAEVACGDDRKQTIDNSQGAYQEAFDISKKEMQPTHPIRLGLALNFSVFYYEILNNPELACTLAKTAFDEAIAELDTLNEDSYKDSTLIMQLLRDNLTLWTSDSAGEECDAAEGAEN
In words: Surface plasmon resonance (BIAcore), phosphopeptide vs 14-3-3τ. It is filed as binding. The settings on record: 14-3-3τ; BIAcore 2000, BIAevaluation 3.0; biotinylated peptide on streptavidin chip (220 RU); HBS-EP buffer, 20 µl/min; read-out: estimated Kd of the mode 1 phosphopeptide. On the procedure:
The surface plasmon resonance measurement was carried out using BIAcore 2000. A resonance unit value of 220 of biotinylated phosphopeptide pSRaf 259 (biotin-MAGGGRQRSTpSTPN) (mode 1 peptide) was coupled to a streptavidin-coated sensor chip (SA5, BIAcore). In the next step, 200 nM each of purified GST-14-3-3I, GST-14-3-3II, and GST–14-3-3τ, or 500 nM each of MBP-14-3-3I, MBP-14-3-3II, and MBP-14-3-3τ in HBS-EP buffer (BIAcore) was injected at a flow rate of 20 µl/min. A resonance unit value of 296 of biotinylated mode 2 peptide (biotin-MAGGGRLYHpSLP) was also coupled to SA5 and 200 nM each of GST-14-3-3I, GST-14-3-3II and GST-14-3-3τ in HBS-EP buffer, and was injected in the same manner.

Another experiment deals with human 14-3-3ζ. The experiment is described as follows: NC-filter binding assay, human 14-3-3ζ. The settings on record: biotinylated peptide + streptavidine on nitrocellulose filter; GST-14-3-3ζ detected with α-GST antibodies. On the procedure: as §1
The target in the next experiment is T2, MBP-14-3-3τ (human, UniProt P27348 1-245).
T2 construct: human 14-3-3 tau; source: purified
T2 sequence (looked up): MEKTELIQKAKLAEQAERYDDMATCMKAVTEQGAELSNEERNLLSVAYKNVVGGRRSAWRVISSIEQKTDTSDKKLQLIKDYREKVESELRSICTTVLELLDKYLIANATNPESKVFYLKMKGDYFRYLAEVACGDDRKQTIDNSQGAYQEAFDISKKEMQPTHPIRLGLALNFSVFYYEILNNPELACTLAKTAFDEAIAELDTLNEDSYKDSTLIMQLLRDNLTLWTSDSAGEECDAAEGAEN
The experiment is described as follows: SPR; BIAcore 2000; biotinylated phosphopeptide coupled to a streptavidin-coated chip (220 RU mode 1, 296 RU mode 2); 200 nM GST-14-3-3 or 500 nM MBP-14-3-3 proteins injected in HBS-EP at 20 µl/min; Kd by BIAevaluation 3.0. As to conditions: both partners purified. A general note: SPR reads the build-up and loss of mass on a sensor chip optically.

Experiment [5] deals with T3, GST-14-3-3ζ (human 14-3-3ζ) (human, UniProt P63104 1-245).
T3 construct: human 14-3-3 zeta
T3 sequence (looked up): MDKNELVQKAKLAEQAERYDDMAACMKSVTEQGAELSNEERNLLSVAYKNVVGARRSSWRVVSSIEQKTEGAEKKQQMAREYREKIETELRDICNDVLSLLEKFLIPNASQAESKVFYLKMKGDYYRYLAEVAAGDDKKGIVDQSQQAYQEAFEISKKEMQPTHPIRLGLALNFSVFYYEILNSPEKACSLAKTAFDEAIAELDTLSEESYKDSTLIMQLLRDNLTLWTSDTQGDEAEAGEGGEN
In words: far-Western, overlay or dot blot; NC-filter binding assay: biotinylated peptides (1 mM) mixed with streptavidin, spotted on nitrocellulose and dried; incubated with GST-14-3-3 proteins in TTBS with 20% Protein-Free Blocking Buffer and 1 mM DTT; anti-GST detection. As to conditions: both partners purified.

In experiment [6] the target is T4, GST-14-3-3τ (human 14-3-3τ fused to glutathione S-transferase) (human, UniProt P27348 1-245).
T4 construct: human 14-3-3 tau; also called GST-τ; source: purified
T4 sequence (looked up): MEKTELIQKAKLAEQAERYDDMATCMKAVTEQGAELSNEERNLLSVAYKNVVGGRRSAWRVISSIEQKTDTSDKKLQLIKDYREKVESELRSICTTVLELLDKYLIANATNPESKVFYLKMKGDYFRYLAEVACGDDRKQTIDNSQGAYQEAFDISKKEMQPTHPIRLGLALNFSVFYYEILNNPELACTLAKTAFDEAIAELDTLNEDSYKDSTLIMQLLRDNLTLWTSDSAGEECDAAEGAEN
In words: SPR. As to conditions: both partners purified.

Experiment [7] concerns the target T3, GST-14-3-3ζ (human 14-3-3ζ). In words: far-Western, overlay or dot blot. As to conditions: both partners purified.

In the case of HVSGLKRRRpSV [p31-SAP part of …pSV], in [1], the “interaction with spotted phosphopeptide” value is listed as “high-affinity”.

Regarding “Biotin-MAGGGRQRSTSTPN [pRaf259, c-Raf-derived peptide in which 259Ser is unphosphorylated]”, the peptide pull-down interaction entry in experiment [2] (T. brucei PCF lysates, 5×10^8 cells/pull-down, Western blot α-II) is on record as “did not interact”; in [3] (T. brucei PCF lysates, 5×10^8 cells/pull-down, Western blot α-I), “did not interact”. Moreover, the “peptide pull-down interaction, longer exposure” value in experiment [2] (T. brucei PCF lysates, Western blot α-II, longer exposure) is “weak interaction”. Besides, the “amount of captured 14-3-3II, phospho- vs non-phospho-peptide beads” value in [2] (longer exposure) is “not different between phospho-(pSRaf259) and non-phospho-(pRaf259) peptide-conjugated beads”. In addition, in experiment [3] (longer exposure), the “recovery of 14-3-3I by peptide-conjugated beads” value is “No 14-3-3I was recovered”.

As for `[Ca+2].[Cl-].[Cl-]` [CaCl2], the “effect on interacting proteins, CalA (−) vs (+), with or without calcium” value in [4] is listed as “no major difference”.

In general, Kd refers to the free concentration of one partner at which half of the binding sites on the other are occupied at equilibrium, for simple one-to-one binding. For the molecule `CSCC[C@H](NC(=O)CCCC[C@@H]1SC[C@@H]2NC(=O)N[C@@H]21)C(=O)N[C@@H](C)C(=O)NCC(=O)NCC(=O)NCC(=O)N[C@@H](CCCNC(=N)N)C(=O)N[C@@H](CCC(N)=O)C(=O)N[C@@H](CCCNC(=N)N)C(=O)N[C@@H](CO)C(=O)N[C@H](C(=O)N[C@@H](COP(=O)(O)O)C(=O)N[C@H](C(=O)N1CCC[C@H]1C(=O)N[C@@H](CC(N)=O)C(=O)O)[C@@H](C)O)[C@@H](C)O` [pSRaf259] (Biotin-MAGGGRQRST[pS]TPN-OH), the equilibrium dissociation constant (Kd) on human 14-3-3τ is 220 nM.

With `COC[C@@H]([C@H](O)[C@H](O)C(=O)NCC[C@H](C)c1nc(/C=C/C[C@@H]2O[C@]3(C[C@@H](O)[C@@H]2C)O[C@H]([C@H](C[C@H](O)[C@H](C)[C@H](O)[C@H](C)/C=C(C)/C(C)=C/C=C/C(C)=C\C#N)OC)[C@H](OP(=O)(O)O)C3(C)C)co1)N(C)C` [calyculin A], the “effect on interacting proteins, CalA (−) vs (+), with or without calcium” value in experiment [4] is “no major difference”. The “number and amounts of the 14-3-3τ-interacting protein upon treatment” value in experiment [4] (PCF and HeLa cells, probe GST-τ) is “increased”.

For -WLTRSRSLW [PP2c], the “interaction with spotted phosphopeptide” value in experiment [1] was “failed to show the interactions”.

On to “-LIEGRKQTVG [ACS, putative mode 3 synthetic phosphopeptide derived from ACS (acetyl-CoA synthetase, putative)]”, for which the “interaction with spotted phosphopeptide” value (in experiment [1]; in the experiment with human 14-3-3ζ) was “would not interact” throughout.

With “MGGGLTRSRpSL [PP2c (-W), mode 3 phosphopeptide derived from PP2c-W]”, the “interaction with spotted phosphopeptide” value in experiment [1] is listed as “failed to show the interactions”; in experiment [1] (listed as MGGGLTRSRpSL), “not detected”; in the experiment on human 14-3-3ζ it was “interacts with both phosphopeptides but with the preferential binding to the mode 3 peptide derived from p31-SAP”.

B1: c-Raf-derived phosphopeptide pSRaf259 (biotin-MAGGGRQRSTpSTPN) (peptide)
peptide: Biotin-MAGGGRQRST[pS]TPN
notes: spacer before the c-Raf stretch; human c-Raf 1 stretch around Ser-259; also called mode 1 peptide; mode 1 phosphopeptide; source: synthetic peptide
As for B1, the binding result (with MBP-14-3-3τ; in [5]) was “binds” each time.

In the case of Biotin-MAGGGRLYH[pS]LP (not fully specified, also called mode 2 peptide) [mode 2 phosphopeptide (biotin-[residues removed]pSLP)], the binding result in experiment [6] and in experiment [7] was “binds” throughout.

These data come from PMC3006207, “Phosphorylation-Dependent Protein Interaction with Trypanosoma brucei 14-3-3 Proteins that Display Atypical Target Recognition” (PLoS ONE, 2010).
